The supplement of paper PMC9663587

Experiments:
Test in all cases: area over the GR curve, 72 h; higher = more effect;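 note: Dye Drop or Deep Dye Drop imaging of viable cells in 384-well plates (Hoechst nuclei, LIVE/DEAD dye), nine half-log doses, GR normalized to DMSO controls and time-zero plates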
MGH312 = system: MGH312
CAMA1 = system: CAMA1
PDX1258 = system: PDX1258
HCC202 = system: HCC202
MDAMB361 = system: MDAMB361
SUM52PE = system: SUM52PE
UACC893 = system: UACC893
MDAMB231 = system: MDAMB231
MCF12A = system: MCF12A
MDAMB415 = system: MDAMB415
HCC1187 = system: HCC1187
ZR751 = system: ZR751
CAL51 = system: CAL51
ZR7530 = system: ZR7530
UACC812 = system: UACC812

| SMILES | area over the GR curve (MGH312) [GR] | area over the GR curve (CAMA1) [GR] | area over the GR curve (PDX1258) [GR] | area over the GR curve (HCC202) [GR] | area over the GR curve (MDAMB361) [GR] | area over the GR curve (SUM52PE) [GR] | area over the GR curve (UACC893) [GR] | area over the GR curve (MDAMB231) [GR] | area over the GR curve (MCF12A) [GR] | area over the GR curve (MDAMB415) [GR] | area over the GR curve (HCC1187) [GR] | area over the GR curve (ZR751) [GR] | area over the GR curve (CAL51) [GR] | area over the GR curve (ZR7530) [GR] | area over the GR curve (UACC812) [GR] | area over the GR curve (CAMA1; main component drawn) [GR] | area over the GR curve (PDX1258; main component drawn) [GR] | area over the GR curve (MDAMB361; main component drawn) [GR] | area over the GR curve (MDAMB231; main component drawn) [GR] | area over the GR curve (CAL51; main component drawn) [GR] |
| --- | --- | --- | --- | --- | --- | --- | --- | --- | --- | --- | --- | --- | --- | --- | --- | --- | --- | --- | --- | --- |
| COc1ccc2c(c1)[C@]1(C[C@H]1c1ccc3c(/C=C/c4ccc(CN5C[C@@H](C)O[C@@H](C)C5)cc4)n[nH]c3c1)C(=O)N2 | 1.19 | 0.587 | 0.676 | 0.299 | 0.425 | 0.516 | 0.416 | 0.765 | 0.499 | 0.36 | 0.535 | 0.451 | 0.562 | 0.509 | 0.524 |  |  |  |  |  |
| COc1cccc(OCCCN)c1-c1cc(Nc2cnc(C#N)cn2)n[nH]1 | 0.0934 | 0.483 | 0.868 | 0.332 | 0.828 | 0.425 | 0.171 | 1.09 | 0.589 | 0.0862 | 0.235 | 0.3 | 0.528 | 0.0681 | 0.0047 |  |  |  |  |  |
| CC(=O)Nc1cccc(-n2c(=O)n(C3CC3)c(=O)c3c(Nc4ccc(I)cc4F)n(C)c(=O)c(C)c32)c1 (max 1 µM) | -0.169 | 0.169 | 0.0351 | 0.237 | 0.219 | 0.224 | 0.434 | 0.722 | 0.531 | 0.174 | 0.198 | 0.328 | 0.0662 | 0.219 | 0.686 |  |  |  |  |  |
| CCc1cnn2c(NCc3ccc[n+]([O-])c3)cc(N3CCCC[C@H]3CCO)nc12 (max 1 µM) | 0.867 | 0.606 | 0.685 | 0.406 | 0.593 | 0.491 | 0.67 | 0.663 | 0.424 | 0.55 | 0.942 | 0.468 | 0.599 | 0.713 | 0.151 |  |  |  |  |  |
| CC(=O)c1c(C)c2cnc(Nc3ccc(N4CCNCC4)cn3)nc2n(C2CCCC2)c1=O (max 3.162 µM) | -0.129 | 0.353 | -0.0777 | 0.135 | 0.473 | 0.201 | 0.436 | 0.345 | 0.0837 | 0.454 | 0.268 | 0.12 | 0.25 | 0.284 | 0.609 |  |  |  |  |  |
| CCc1cncnc1N1CCN(Cc2nc3ccc(C(F)(F)F)cc3[nH]2)CC1 (max 10 µM) | -0.0701 | 0.0582 | -0.0033 | 0.0342 | 0.0684 | 0.0787 | 0.0713 | 0.0105 | -0.0039 | 0.0085 | 0.014 | -0.0587 | 0.0491 | 0.0942 | 0.275 |  |  |  |  |  |
| CCCCOc1c(C(=O)c2c(F)cc(C)cc2F)c[nH]c2nncc1-2 (max 10 µM) | 0.628 | 0.842 | 1.05 | 0.359 | 0.56 | 0.464 | 0.519 | 0.334 | 0.272 | 0.349 | 0.203 | 0.209 | 0.226 | 0.481 | 0.886 |  |  |  |  |  |
| CCN1CCN(Cc2ccc(Nc3ncc(F)c(-c4cc(F)c5nc(C)n(C(C)C)c5c4)n3)nc2)CC1 (max 10 µM) | 0.124 | 0.613 | 0.329 | 0.277 | 0.828 | 0.341 | 0.657 | 0.675 | 0.169 | 0.71 | 0.33 | 0.429 | 0.578 | 0.546 | 1.04 |  |  |  |  |  |
| CNc1nc(-c2ccc3c(N)n[nH]c3c2)cc(N2C[C@@H](C(=O)NC3CCCCC3)CC[C@H]2C)n1 (max 10 µM) | 0.718 | -0.0192 | 0.011 | 0.365 | 0.636 | 0.124 | 0.137 | 0.149 | 0.0618 | 0.295 | -0.283 | 0.257 | 0.0516 | 0.408 | 0.367 |  |  |  |  |  |
| CO[C@@H](C)Cn1c(=O)n(C)c2cnc3ccc(-c4cncc(C(C)(C)O)c4)cc3c21 (max 10 µM) | 1.21 | 0.972 | 0.557 | 0.726 | 1.47 | 0.75 | 0.992 | 0.607 | 0.476 | 0.922 | 0.303 | 0.691 | 0.631 | 0.726 | 1.03 |  |  |  |  |  |
| Cc1nn(C)c(COc2ccc(N3CCN(S(=O)(=O)N(C)C)CC3)cc2)c1-c1cccc2c(CCCOc3cccc4ccccc34)c(C(=O)O)n(CCN3CCOCC3)c12 (max 10 µM) | -0.123 | 0.0026 | -0.0034 | -0.005 | -0.0172 | 0.0586 | -0.0074 | 0.0519 | -0.0165 | 0.0101 | -0.0287 | -0.0518 | 0.0073 | 0.0093 | 0.0654 |  |  |  |  |  |
| CN(C)CC[C@H](CSc1ccccc1)Nc1ccc(S(=O)(=O)NC(=O)c2ccc(N3CCN(Cc4ccccc4-c4ccc(Cl)cc4)CC3)cc2)cc1[N+](=O)[O-] [ABT-737] (max 10 µM) | 0.224 | 0.0008 | -0.0015 | -0.0052 | -0.0339 | 0.0757 | -0.0097 | 0.162 | 0.0052 | 0.0607 | 0.526 | 0.0133 | 0.0125 | -0.0351 | 0.276 |  |  |  |  |  |
| C=CCn1c(=O)c2cnc(Nc3ccc(N4CCN(C)CC4)cc3)nc2n1-c1cccc(C(C)(C)O)n1 [AZD1775] (max 10 µM) | 0.334 | 0.0364 | 0.73 | 0.579 | 0.897 | 0.158 | 0.488 | 0.606 | 0.255 | 0.28 | 0.822 | 0.143 | 0.461 | 0.322 | 0.34 |  |  |  |  |  |
| CNC(=O)c1cccc(-c2ccc3c(N4CCOC[C@@H]4C)nc(N4CCOC[C@@H]4C)nc3n2)c1 [AZD2014] (max 10 µM) | 1.39 | 0.873 | 0.41 | 0.698 | 1.2 | 0.682 | 0.845 | 0.405 | 0.529 | 0.762 | 0.296 | 0.8 | 0.485 | 0.749 | 1.13 |  |  |  |  |  |
| NC1(C(=O)N[C@@H](CCO)c2ccc(Cl)cc2)CCN(c2nc[nH]c3nccc2-3)CC1 [AZD5363] (max 10 µM) | 1.44 | 0.583 | 0.153 | 0.236 | 0.367 | 0.196 | 0.769 | -0.0246 | 0.142 | 0.855 | -0.203 | 0.0911 | 0.161 | 0.393 | 0.2 |  |  |  |  |  |
| C[C@@H]1COCCN1c1cc(C2([S@](C)(=N)=O)CC2)nc(-c2cc[nH]c3nccc2-3)n1 [AZD6738] (max 10 µM) | -0.22 | -0.0516 | 0.0598 | 0.0023 | 0.161 | 0.0121 | 0.0149 | -0.0233 | 0.192 | 0.0148 | 0.249 | 0.03 | 0.103 | -0.0333 | -0.0578 |  |  |  |  |  |
| NC(=O)Nc1cc(-c2cccc(F)c2)sc1C(=O)N[C@H]1CCCNC1 [AZD7762] (max 10 µM) | 0.469 | 0.418 | 0.909 | 0.652 | 1.05 | 0.634 | 0.431 | 0.527 | 0.521 | 0.398 | 0.776 | 0.201 | 0.714 | 0.199 | 1.02 |  |  |  |  |  |
| Cc1nc(NC(=O)N2CCC[C@H]2C(N)=O)sc1-c1ccnc(C(C)(C)C(F)(F)F)c1 [Alpelisib/BYL719] (max 10 µM) | -0.015 | 0.0106 | 0.0534 | 0.351 | 0.531 | 0.19 | 0.492 | 0.0895 | 0.0144 | 0.0453 | 0.0302 | 0.0495 | 0.149 | 0.351 | 0.381 |  |  |  |  |  |
| CN(C)C/C=C/C(=O)Nc1ccc(O[C@@H]2CCC[C@@H](Nc3ncc(Cl)c(-c4c[nH]c5ccccc45)n3)C2)cc1 [BSJ-01-175] (max 10 µM) | 1.47 | 0.68 | 1.3 | 0.685 | 1.32 | 0.618 | 0.927 | 0.991 | 0.146 | 0.676 | 1.08 | 0.189 | 0.434 | 0.989 | 0.571 |  |  |  |  |  |
| Cc1c(N)nc([C@H](CC(N)=O)NC[C@H](N)C(N)=O)nc1C(=O)N[C@H](C(=O)N[C@H](C)[C@@H](O)[C@H](C)C(=O)N[C@H](C(=O)NCCc1nc(-c2nc(C(=O)NCCC[S+](C)C)cs2)cs1)[C@@H](C)O)[C@@H](OC1OC(CO)C(O)C(O)C1OC1OC(CO)C(O)C(OC(N)=O)C1O)c1cnc[nH]1 (stereo not given in full) [Bleomycin] (max 10 µM) |  |  |  |  |  |  |  |  |  |  |  |  |  |  |  | 0.274 | 0.295 | 0.361 | 0.132 | 0.485 |
| N.N.[Cl][Pt][Cl] [Cisplatin] (max 10 µM) |  | 0.328 | 0.155 |  | 0.177 |  |  | 0.15 |  |  |  |  | 0.214 |  |  |  |  |  |  |  |
| COc1cc([C@@H]2c3cc4c(cc3[C@@H](O[C@@H]3O[C@@H]5CO[C@@H](C)O[C@H]5[C@H](O)[C@H]3O)[C@H]3COC(=O)[C@H]23)OCO4)cc(OC)c1O [Etoposide] (max 10 µM) |  | 0.571 | 0.394 |  | 0.343 |  |  | 0.298 |  |  |  |  | 0.467 |  |  |  |  |  |  |  |
| CC[C@@]1(O)C(=O)OCc2c1cc1n(c2=O)Cc2cc3c(CN(C)C)c(O)ccc3nc2-1 [Topotecan] (max 10 µM) |  | 1.05 | 0.867 |  | 1.13 |  |  | 0.704 |  |  |  |  | 0.856 |  |  |  |  |  |  |  |
